{"source": "patent US5266600A", "about": "(priority 1992, dated 1993)", "key": {"tubulin (3XMTP) [1]": {"tested_on": "tubulin (3XMTP)", "conditions": "cited from earlier work"}, "[2]": {"experiment": "Cytotoxicity in virus-uninfected MT-4 cells", "format": "cell-based", "conditions": "human; virus-uninfected MT-4 cells"}, "tubulin (3XMTP) [3]": {"tested_on": "tubulin (3XMTP)", "experiment": "Electron microscopic observation of microtubule assembly in 3XMTP", "format": "biochemical, calf", "conditions": "100 μM"}, "HIV-1 IIIb": {"tested_on": "HIV-1 IIIb", "experiment": "Acute infection of HIV-1 IIIb in CEM-SS cells", "format": "cell-based"}, "[4]": {"experiment": "Cytotoxicity in CEM-SS cells", "format": "cell-based", "conditions": "human"}, "[5]": {"tested_on": "tubulin bundling in human colon cells", "experiment": "Immunofluorescence study of tubulin bundling in human colon cells", "format": "cell-based"}, "Solubility": {"experiment": "Solubility", "format": "physicochemical", "excerpt": "BU-4641V was isolated as a white amorphous powder. […] It gave positive responses to iodine vapor, sulfuric acid and ferric chloride tests, but negative responses to Rydon-Smith, Dragendorff and anthrone-sulfuric acid tests on silica gel TLC plate."}, "[6]": {"tested_on": "HTLV-III (human T cell lymphotropic virus type III)", "experiment": "Inhibition of HTLV-III infection in MT-4 cells (MTT)", "format": "cell-based", "conditions": "for EC50: HTLV-III infected MT-4 cells, 5 days, MTT", "procedure": "Human T cell lymphotropic virus type III (HTLV-III)/lymphadenopathy-associated virus is the etiologic agent of the acquired immune deficiency syndrome (AIDS) and AIDS-related complex. […] (Nakashima, H. et al., Antimicrobial Agents & Chemotherapy, 30, pp 933-937, 1986).\nAn HTLV type I-Carrying cell line, MT-4, was maintained in RPMI 1640 medium supplemented with 10% fetal calf serum, 100 IU of penicillin G per ml and 100 μg of streptomycin per ml at 37° C. in a CO2 incubator. HTLV-III8 was obtained from the supernatant of the Molt-4/HTLV-III8 culture. The titer of this virus preparation was 3.0×10^5 PFU/ml. MT-4 cells were infected with 0.01 MOI of HTLV-III8. The infected cells resuspended in fresh medium were mixed with a test sample solution (or medium itself for control) to give 2.5×10^4 cells in a 200 μl volume and incubated at 37° C. for 5 days. The surviving cells were measured by the MTT (3-(4,5-dimethylthiazol-2-yl)-2,5-diphenyltetrazolium bromide) method (R. Pauwels et al., J. Virol Methods, 20, pp 309-321, 1988). [formula]\nFifty percent effective concentration (EC50) was obtained from the inhibition rates."}, "[7]": {"tested_on": "syncytium formation between HIV gp-120 expressing BSC-1 cells and HeLa-T4 (CD4) cells", "experiment": "Syncytium formation inhibition assay", "format": "cell-based", "conditions": "for Syncytium inhibitory activity ID50: 3-5 hours, 37° C."}, "tubulin (3XMTP) [8]": {"tested_on": "tubulin (3XMTP)", "experiment": "Tubulin polymerization assay using thrice-cycled microtubule protein (3XMTP), spectrophotometric", "format": "biochemical, calf", "procedure": "Briefly, tubulin was purified from calf brain extracts by three cycles of polymerization at 35° C. in the presence of 1 mM GTP+2.5 mM ATP, and depolymerization at 4° C. in PM buffer pH 6.6 (0.1 M PIPES, […]) containing various concentrations of glycerol as described previously (Williams R. C. and J. C. Lee 1982 Methods in Enzymology 85: pp. 376-385). The tubulin polymerization assay was carried out using 3XMTP in PM buffer containing 0.4 M of glycerol in the presence of test-compound. The polymerization was quantitated by Shimadzu spectrophotometer (Model No. UV 2100U) at 350 nm. Effect of compound on the kinetics of tubulin polymerization was followed for 20 minutes using taxol as a positive control and DMSO as a negative control. Compound in PM buffer +0.4 M glycerol (no MTP) served as buffer (negative) controls."}, "[9]": {"target": "T1, HIV envelope protein gp120 / T cells (UniProt P01730+P04578)", "T1 construct": "CD4 native on cells", "experiment": "Binding of HIV envelope protein gp120 to T cells"}, "MT-4 cells": {"tested_on": "MT-4 cells", "experiment": "Cytotoxicity in virus-uninfected MT-4 cells", "format": "cell-based", "conditions": "human, mt-4 cells"}}, "note": "Entries after “also recorded” stand apart in the source; their conditions may differ. Where two headings read alike, the source gives them in different places.", "data": [{"compound": "Nc1nc2c(ncn2[C@@H]2O[C@H](COP(=O)(O)OP(=O)(O)OP(=O)(O)O)[C@@H](O)[C@H]2O)c(=O)[nH]1", "note": "[GTP]", "values": [{"measurement": "promotion of tubulin polymerization (in words), known", "setting": "tubulin (3XMTP) [1]; GTP", "value": "known to reversibly promote tubulin polymerization; also recorded: only active on tubulin in the presence of microtubule associated proteins (MAPS)"}]}, {"compound": "CC1=CCC2(C)C(=O)C(O)=C(C(C)CO)C2CC=C(C)C(O)CCC(C)=CCC1", "note": "(stereo not drawn) [BU-4641V]", "values": [{"measurement": "CC50", "setting": "[2]", "value": 37.8, "unit": "mg/L"}, {"measurement": "microtubule assembly by electron microscopy (in words)", "setting": "tubulin (3XMTP) [3]", "value": "confirmed by electron microscopic observation of microtubule assembly"}, {"measurement": "blocking of acute HIV-1 IIIb infection (in words)", "setting": "HIV-1 IIIb", "value": "only partially blocks the acute infection of HIV-1 IIIb"}, {"measurement": "IC50", "setting": "HIV-1 IIIb; acute infection of HIV-1 IIIb", "value": 10, "unit": "µM"}, {"measurement": "CC50", "setting": "[4]", "value": 84, "unit": "µM"}, {"measurement": "tubulin bundling around nuclei (in words)", "setting": "[5]", "value": "induces tubulin bundling around nuclei"}, {"measurement": "solubility", "setting": "Solubility", "value": "soluble in dimethyl sulfoxide, methanol, methylene chloride, ethyl acetate and alkaline water (such as 0.1 N NaOH); also recorded: insoluble in hexane and water"}, {"measurement": "EC50", "setting": "[6]", "value": 0.78, "unit": "mg/L"}, {"measurement": "activity against HTLV-III (in words)", "setting": "[6]; compared with dextran sulfate", "value": "more active than dextran sulfate against HTLV-III"}, {"measurement": "Syncytium inhibitory activity ID50", "setting": "[7]", "value": 0.46, "unit": "mg/L"}, {"measurement": "syncytium inhibitory activity (in words)", "setting": "[7]; compared with dextran sulfate", "value": "more potent syncytium inhibitory activity; also recorded: stronger syncytium inhibitory property than that of dextran sulfate"}, {"measurement": "promotion of tubulin polymerization (in words)", "setting": "tubulin (3XMTP) [8]", "value": "promotes tubulin polymerization in a dose dependent manner; also recorded: reversibly stimulates polymerization of purified tubulin protein; also recorded: promote tubulin polymerization"}, {"measurement": "initial rate of tubulin polymerization (in words)", "setting": "tubulin (3XMTP) [8]; compared to taxol", "value": "slower initial rate"}, {"measurement": "reversal of tubulin polymerization by CaCl2 (in words)", "setting": "tubulin (3XMTP) [8]; treatment with CaCl2", "value": "can be reversed by treatment with CaCl2"}, {"measurement": "binding of HIV envelope protein gp120 to T cells", "setting": "[9]", "value": "does not affect the binding of HIV envelope protein gp120 to T cells"}]}, {"compound": "Dextran sulfate [reference compound]", "values": [{"measurement": "CC50", "setting": "MT-4 cells", "value": "> 1000", "unit": "mg/L"}, {"measurement": "EC50", "setting": "[6]", "value": 1.4, "unit": "mg/L"}, {"measurement": "Syncytium inhibitory activity ID50", "setting": "[7]", "value": 12.0, "unit": "mg/L"}]}, {"compound": "CC(=O)O[C@H]1C(=O)[C@@]2(C)[C@H]([C@H](OC(=O)c3ccccc3)[C@]3(O)C[C@H](OC(=O)[C@H](O)[C@@H](NC(=O)c4ccccc4)c4ccccc4)C(C)=C1C3(C)C)[C@]1(OC(C)=O)CO[C@@H]1C[C@@H]2O", "note": "[Taxol, reference compound]", "values": [{"measurement": "tubulin bundling around nuclei (in words)", "setting": "[5]", "value": "induces tubulin bundling around nuclei"}, {"measurement": "promotion of tubulin polymerization (in words), known", "setting": "tubulin (3XMTP) [1]; taxol", "value": "promote tubulin polymerization"}]}]}
